In US20070060533A1, “Novel inhibitor of the formation of advanced glycation end product and aldose reductase inhibitor” (Meiji Seika Kaisha Ltd., priority 2003, published 2007):

How the values were obtained:
AGE formation = AGE formation suppression test (glucose + bovine serum albumin, fluorescence); assay type: biochemical; conditions: 67 mmol/L phosphate buffer pH 7.2, 60° C., 48 hours
Experimental: The test was conducted by a partially modified version of the method of Morimitu et al (Morimitu. Y. et. al., Biosci. Biotech. Biochem., 59, 2018-2021 (1995)). Specifically, glucose, each test substance dissolved in DMSO, and bovine serum albumin were incubated in a 67 mmol/L phosphate buffer (pH 7.2) at 60° C. for 48 hours. AGE was thus sufficiently formed by incubation. The amount of formed AGE was discovered by dilution of the reaction solution followed by measurement using a fluorospectrophotometer. The 50% inhibition concentration (IC50) was calculated using the thus obtained value. The lower the IC50, the higher the AGE-inhibiting activity. This indicates the usefulness of a substance as an inhibitor.
(§1) The test substances used herein were the anthocyanin-containing composition prepared in Example 1 and 4 types of crystalline anthocyanin prepared in Example 2.

aldose reductase = molecular target: T1, aldose reductase (Rattus norvegicus, UniProt P07943); experiment: Aldose-reductase-inhibiting activity test (rat lens crude enzyme); assay type: biochemical, Wistar male rats; conditions: DL glycerylaldehyde substrate, pH 7.0, 30° C.
T1 construct: the supernatant was used as a crude enzyme solution; from tissue; host or cells: lenses of Wistar male rats
Experimental: The test was conducted by a partially modified version of the method of Dufrane et al (Dufrane S. P. et al., Biochem. Med., 32, 99-105 (1984)). Specifically, the lenses of Wistar male rats were homogenized with 10 mmol/L 2-mercapto ethanol. The resultant was centrifuged, and then the supernatant was used as a crude enzyme solution. Each test substance was dissolved in DMSO and then added to a 180 mmol/L phosphate buffer (pH 7.0). 100 mmol/L lithium sulfate and 0.03 mmol/L NADPH were further added to the solution to initiate a reaction at 30° C. using 1 mmol/L DL glycerylaldehyde as a substrate. 0.5 mol/L HCl was added to stop the reaction. 6 mol/L sodium hydroxide containing 10 mmol/L imidazole was added to the solution. The solution was heated for 20 minutes at 60° C. to convert NADP to a fluorescent substance. The thus generated fluorescent substance was subjected to measurement using a fluorospectrophotometer. 50% inhibition concentration (IC50) was calculated using the thus obtained value.
as §1

SMILES: N=C(N)NN [Aminoguanidine, aminoguanidine, reference compound]
- IC50 (AGE formation): 1200 µM

SMILES: CC1OC(OCC2OC(Oc3cc4c(O)cc(O)cc4[o+]c3-c3cc(O)c(O)c(O)c3)C(O)C(O)C2O)C(O)C(O)C1O (stereo not shown) [Example 2 (D3R), delphinidin-3-O-rutinoside]
- IC50 (aldose reductase): 15.2 µM
- IC50 (AGE formation): 163 µM

SMILES: OCC1OC(Oc2cc3c(O)cc(O)cc3[o+]c2-c2ccc(O)c(O)c2)C(O)C(O)C1O (stereo not shown) [Example 2 (C3G), cyanidin-3-O-glucoside]
- IC50 (aldose reductase): 4.7 µM
- IC50 (AGE formation): 132 µM

SMILES: C[C@@H]1O[C@@H](OC[C@H]2O[C@@H](Oc3c(-c4ccc(O)c(O)c4)oc4cc(O)cc(O)c4c3=O)[C@H](O)[C@@H](O)[C@@H]2O)[C@H](O)[C@H](O)[C@H]1O [Rutin, rutin, reference compound]
- IC50 (aldose reductase): 9 µM

SMILES: OCC1OC(Oc2cc3c(O)cc(O)cc3[o+]c2-c2cc(O)c(O)c(O)c2)C(O)C(O)C1O (stereo not shown) [Example 2 (D3G), delphinidin-3-O-glucoside]
- IC50 (aldose reductase): 12.5 µM
- IC50 (AGE formation): 99 µM

SMILES: CC1OC(OCC2OC(Oc3cc4c(O)cc(O)cc4[o+]c3-c3ccc(O)c(O)c3)C(O)C(O)C2O)C(O)C(O)C1O (stereo not shown) [Example 2 (C3R), cyanidin-3-O-rutinoside]
- IC50 (aldose reductase): 2.5 µM
- IC50 (AGE formation): 154 µM
